Test results as given in patent US12528818B2, “Compositions and methods for inhibition of RAS” (Leidos Biomedical Research, Inc., priority 2021, dated 2026).
pIC50: −log10 of the molar value.

System: pERK in NCI-H358 cells
Assay: Cell-based pERK HTRF assay (pERK inhibition in H358 cells)
Details: Homo sapiens, NCI-H358, 0.5 h, pERK inhibition IC50, NCI-H358 cells, 30 min incubation; read-out: PERK in H358 cell

SMILES | pIC50
C=CC(=O)N1C[C@@H](Nc2nc(OCC34CCCN3CCC4)nc3c(F)c(-c4ccc(F)c5sc(N)nc45)c(Cl)cc23)[C@H]1C [Compound 197] | < 6.00
C=CC(=O)N1CC[C@@H](N(C)c2nc(OC[C@@]34CCCN3C[C@H](F)C4)nc3c(F)c(-c4ccc(F)c5sc(C(F)F)nc45)c(C(F)(F)F)cc23)C1 [Compound 310] | < 6.00
C=CC(=O)N1CCC(N(CC)c2nc(OC[C@@H]3CCCN3C)nc3cc(-c4ccc(F)c5sc(N)c(C#N)c45)c(C#N)cc23)[C@H]1COC (stereo partly drawn) [Compound 470] | 6.00 to 7.00
C=CC(=O)N1CC(Nc2nc(OC[C@@H]3C[C@@H](F)CN3C)nc3c(F)c(-c4ccc(F)c5sc(N)nc45)c(Cl)cc23)C1 [Compound 63] | 6.00 to 7.00
CC#CC(=O)N1CC(N(C)c2nc(OC[C@@H]3CCCN3C)nc3c(F)c(-c4ccc(F)c5sc(N)nc45)c(C(F)(F)F)cc23)C1 [Compound 129] | 6.00 to 7.00
CC#CC(=O)N1CCN(c2nc(OC[C@@H]3CC(F)(F)CN3C)nc3c(F)c(-c4ccc(F)c5sc(N)nc45)c(C(F)(F)F)cc23)CC1 [Compound 132] | < 6.00
N#CN1CC(Nc2nc(OCC34CCCN3CCC4)nc3c(F)c(-c4ccc(F)c5sc(N)nc45)c(Cl)cc23)C1 [Compound 58] | 6.00 to 7.00
C=CC(=O)N1CC[C@@H](N(CC)c2nc(OC[C@@]34CCCN3C[C@H](F)C4)nc3c(F)c(-c4ccc(F)c5sc(N)c(C#N)c45)c(C(F)(F)F)cc23)[C@H]1C [Compound 403] | > 7.00
C=CC(=O)N1CCC(N(C)c2nc(OCCO)nc3c(F)c(-c4ccc(F)c5sc(N)c(C#N)c45)ccc23)[C@H]1C (stereo partly drawn) [Compound 468] | 6.00 to 7.00
C=CC(=O)N1CCC(N(C)c2nc(OC[C@@H]3CC4(CC4)CN3C)nc3c(F)c(-c4ccc(F)c5sc(N)c(C#N)c45)ccc23)[C@H]1COC (stereo partly drawn) [Compound 433] | > 7.00
C=CC(=O)N1CC(N(C)c2nc(OCC34CCCN3CC(F)(F)C4)nc3c(F)c(-c4ccc(F)c5sc(N)nc45)c(C(F)(F)F)cc23)C1 (stereo not drawn) [Compound 187] | 6.00 to 7.00

The remaining lines, values ahead:

pIC50 | SMILES
> 7.00 | C=CC(=O)N1CC[C@@H](N(C)c2nc(OC[C@@H]3CC4(CC4)CN3C)nc3c(F)c(-c4ccc(F)c5sc(N)nc45)c(C(F)(F)F)cc23)C1 (atropisomer, axis not shown) [Compound 255]
> 7.00 | C=CC(=O)N1C[C@H](C)N(c2nc(N3CC(N4CC(OC)C4)C3)nc3c(F)c(-c4ccc(F)c5sc(N)c(C#N)c45)c(C(F)(F)F)cc23)C[C@H]1C [Compound 331]
> 7.00 | C=CC(=O)N1CCC(N(CC)c2nc(OC[C@@H]3CC4(CC4)CN3C)nc3c(F)c(-c4ccc(F)c5sc(N)c(C#N)c45)c(C(F)(F)F)cc23)[C@H]1C (stereo partly drawn) [Compound 405]
> 7.00 | C=CC(=O)N1CC[C@@H](N(C)c2nc(OC[C@@]34CCCN3C[C@H](F)C4)nc3c(F)c(-c4ccc(F)c5sc(N)c(C#N)c45)c(C#N)cc23)C1 [Compound 325]
> 7.00 | C=CC(=O)N1CCC(N(CC)c2nc(OC[C@@H]3CC4(CC4)CN3C)nc3c(F)c(-c4ccc(F)c5sc(N)c(C#N)c45)c(C(F)(F)F)cc23)[C@H]1COC (stereo partly drawn) [Compound 445]
> 7.00 | C=CC(=O)N1CCC(N(C)c2nc(OC[C@@H]3CCCN3C)nc3c(F)c(-c4ccc(F)c5sc(N)c(C#N)c45)c(C(F)(F)F)cc23)[C@H]1C (stereo partly drawn) [Compound 400]
> 7.00 | C=CC(=O)N1CCN(c2nc(OC[C@@]34CCCN3C[C@H](F)C4)nc3c(F)c(-c4ccc(F)c5sc(N)c(C#N)c45)c(C(F)(F)F)cc23)C[C@H]1C [Compound 318]
> 7.00 | C=CC(=O)N1C[C@H](C)N(c2nc(OC[C@@H]3C[C@@H](OC)CN3C)nc3c(F)c(-c4ccc(F)c5sc(N)c(C#N)c45)c(C(F)(F)F)cc23)C[C@H]1C [Compound 408]
> 7.00 | C=CC(=O)N1CC[C@@H](N(C)c2nc(OC[C@@]34CCCN3C[C@H](F)C4)nc3c(F)c(-c4ccc(F)c5oc(N)nc45)c(C(F)(F)F)cc23)C1 [Compound 275]
> 7.00 | C=CC(=O)N1C[C@H](C)N(c2nc(OC[C@@]34CCCN3C[C@H](F)C4)nc3cc(-c4ccc(F)c5sc(N)nc45)c(C(F)(F)F)cc23)C[C@H]1C [Compound 299]
